What all share (format): biochemical
For one assay, the target named is Human LOXL2 (Homo sapiens (Human), UniProt Q9Y4K0). Kind of assay: LOXL2 inhibition, peroxidase-coupled Amplex Red amine oxidase assay. Particulars: 30 min preincubation at 37° C., putrescine substrate. The procedure, abridged: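 Enzyme in 1.2 M urea, 50 mM sodium borate pH 8.2 with 1 μM mofegiline and 0.5 mM pargyline, preincubated 30 min at 37° C with compound (11-point CRC). Putrescine at twice KM (10 mM for LOXL2) with Amplex Red/HRP; fluorescence (ex 565, em 590) read kinetically 30 min; IC50 from slopes.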
Sequence of Human LOXL2 (Q9Y4K0 26-774): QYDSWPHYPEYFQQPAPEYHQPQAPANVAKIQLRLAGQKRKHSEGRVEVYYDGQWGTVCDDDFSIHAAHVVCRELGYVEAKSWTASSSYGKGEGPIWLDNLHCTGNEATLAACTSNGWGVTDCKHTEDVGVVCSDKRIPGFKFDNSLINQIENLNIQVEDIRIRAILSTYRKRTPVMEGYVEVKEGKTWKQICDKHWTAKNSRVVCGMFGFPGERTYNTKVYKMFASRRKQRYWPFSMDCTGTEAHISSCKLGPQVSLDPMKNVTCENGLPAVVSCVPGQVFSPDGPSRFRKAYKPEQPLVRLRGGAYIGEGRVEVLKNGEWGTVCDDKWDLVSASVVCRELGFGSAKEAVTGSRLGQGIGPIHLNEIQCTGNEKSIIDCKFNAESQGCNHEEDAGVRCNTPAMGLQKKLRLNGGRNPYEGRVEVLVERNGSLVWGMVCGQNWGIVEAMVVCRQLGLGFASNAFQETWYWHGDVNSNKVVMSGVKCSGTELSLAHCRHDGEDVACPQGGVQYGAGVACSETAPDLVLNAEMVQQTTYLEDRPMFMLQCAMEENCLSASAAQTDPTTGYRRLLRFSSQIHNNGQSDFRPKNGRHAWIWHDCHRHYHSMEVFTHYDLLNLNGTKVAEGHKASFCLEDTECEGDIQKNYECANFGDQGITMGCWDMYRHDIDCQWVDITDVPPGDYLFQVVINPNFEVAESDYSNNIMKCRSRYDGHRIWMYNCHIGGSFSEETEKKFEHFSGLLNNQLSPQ

The target in assay [1] is human recombinant SSAO/VAP-1 (Homo sapiens (Human), UniProt Q16853). Description: Inhibition of human recombinant SSAO/VAP-1 amine oxidase activity. The following applies: 30 min preincubation at 37° C., 600 μM benzylamine. The procedure, abridged: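 Purified SSAO/VAP-1 (residues 34-763, expressed in CHO Lec 8 cells; 0.25 μg/mL) preincubated 30 min at 37° C with compound in 0.1 M sodium phosphate pH 7.4. Reaction mix of 600 μM benzylamine, 120 μM Amplex Red and 1.5 U/mL HRP added; fluorescence (ex 565/em 590 nm) read every 2.5 min for 30 min; IC50 from kinetic slopes over 4-11 point curves.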
Sequence of human recombinant SSAO/VAP-1 (Q16853 34-763): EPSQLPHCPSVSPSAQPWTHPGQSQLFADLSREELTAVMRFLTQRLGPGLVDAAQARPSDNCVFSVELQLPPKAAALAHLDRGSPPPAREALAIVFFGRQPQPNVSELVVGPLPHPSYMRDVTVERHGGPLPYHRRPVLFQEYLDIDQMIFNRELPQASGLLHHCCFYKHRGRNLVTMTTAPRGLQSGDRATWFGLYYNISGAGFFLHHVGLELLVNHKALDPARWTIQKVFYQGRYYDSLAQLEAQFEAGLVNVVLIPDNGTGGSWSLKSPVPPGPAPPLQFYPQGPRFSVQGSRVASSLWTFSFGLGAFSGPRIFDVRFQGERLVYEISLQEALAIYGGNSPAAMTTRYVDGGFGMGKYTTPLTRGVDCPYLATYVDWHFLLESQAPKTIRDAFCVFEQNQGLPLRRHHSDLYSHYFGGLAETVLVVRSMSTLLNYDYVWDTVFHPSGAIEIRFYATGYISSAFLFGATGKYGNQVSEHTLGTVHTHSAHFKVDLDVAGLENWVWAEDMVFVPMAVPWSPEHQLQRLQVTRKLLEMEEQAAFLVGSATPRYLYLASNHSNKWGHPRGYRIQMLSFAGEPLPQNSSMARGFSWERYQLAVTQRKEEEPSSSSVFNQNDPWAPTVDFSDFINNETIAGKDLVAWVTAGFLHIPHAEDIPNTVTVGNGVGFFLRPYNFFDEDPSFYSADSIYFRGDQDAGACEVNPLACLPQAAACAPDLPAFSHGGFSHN

A further assay has as its target Recombinant human MAO-B (Homo sapiens (Human), UniProt P27338). Kind of assay: Inhibition of human recombinant MAO-B. Particulars: benzylamine 100 μM. The procedure, abridged:
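Recombinant human MAO-B used as enzyme source (0.06 mg/mL, stated concentration). Run as for the human SSAO/VAP-1 assay, except benzylamine substrate at 100 μM.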

The target of another assay is Bovine LOX (Bos taurus (Bovine), UniProt P33072). Description: LOX inhibition, peroxidase-coupled Amplex Red amine oxidase assay. Particulars: 30 min preincubation at 37° C., putrescine substrate. The procedure, abridged: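 Bovine LOX in 1.2 M urea, 50 mM sodium borate pH 8.2 with 1 μM mofegiline and 0.5 mM pargyline; putrescine at twice KM (e.g. 20 mM for LOX) with Amplex Red/HRP. Fluorescence (ex 565/em 590 nm) read kinetically over 30 min at 37–45 °C; IC50 from slopes.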
Sequence of Bovine LOX (P33072 170-418): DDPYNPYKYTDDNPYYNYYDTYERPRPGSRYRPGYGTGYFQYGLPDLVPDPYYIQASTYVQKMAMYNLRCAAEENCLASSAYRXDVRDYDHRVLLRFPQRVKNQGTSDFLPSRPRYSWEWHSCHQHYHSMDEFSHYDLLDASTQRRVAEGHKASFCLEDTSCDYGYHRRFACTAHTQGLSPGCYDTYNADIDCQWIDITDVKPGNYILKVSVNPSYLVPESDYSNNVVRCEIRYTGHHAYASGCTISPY

Molecules are shown by their SMILES. Structures can show the parent of a compound that is named as a salt. Bounds are passed on as bounds.

The values below come from patent US10717733B2, “Haloallylamine indole and azaindole derivative inhibitors of lysyl oxidases and uses thereof” (PHARMAXIS LTD., priority 2016, dated 2020).

Sequence of Recombinant human MAO-B (P27338 whole entry): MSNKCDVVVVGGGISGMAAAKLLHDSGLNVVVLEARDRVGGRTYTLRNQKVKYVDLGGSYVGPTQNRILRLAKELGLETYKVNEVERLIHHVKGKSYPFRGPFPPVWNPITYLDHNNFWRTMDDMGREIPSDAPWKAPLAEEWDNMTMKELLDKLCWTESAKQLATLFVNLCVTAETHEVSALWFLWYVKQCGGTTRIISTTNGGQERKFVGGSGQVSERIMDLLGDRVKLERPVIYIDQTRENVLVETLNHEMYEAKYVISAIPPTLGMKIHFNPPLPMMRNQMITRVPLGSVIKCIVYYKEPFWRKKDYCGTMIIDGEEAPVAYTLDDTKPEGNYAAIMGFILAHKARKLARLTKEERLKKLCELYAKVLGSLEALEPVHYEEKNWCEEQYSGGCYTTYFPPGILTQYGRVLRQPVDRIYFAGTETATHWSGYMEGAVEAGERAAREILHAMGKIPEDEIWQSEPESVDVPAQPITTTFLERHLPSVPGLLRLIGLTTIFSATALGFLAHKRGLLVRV

Turning to `Cc1c(-c2cccc(S(=O)(=O)N(C)C)c2)c2cc(C(=O)NC(C)C)ccc2n1C/C(F)=C/CN` [Compound 35, (Z)-1-(4-amino-2-fluorobut-2-en-1-yl)-3-(3-(N,N-dimethylsulfamoyl)phenyl)-N-isopropyl-2-methyl-1H-indole-5-carboxamide], the IC50 (in general, the concentration that gives 50% inhibition) was below 0.3 µM on Human LOXL2, above 3 µM in assay [1], above 3 µM at Recombinant human MAO-B and above 0.3 µM at Bovine LOX.
`Cc1c(-c2cccc(S(=O)(=O)N(C)C)c2)c2cc(C(=O)N(C)C(C)C)ccc2n1C/C(F)=C/CN` [Compound 36, (Z)-1-(4-amino-2-fluorobut-2-en-1-yl)-3-(3-(N,N-dimethylsulfamoyl)phenyl)-N-isopropyl-N,2-dimethyl-1H-indole-5-carboxamide]: the IC50 was below 0.3 µM on Human LOXL2, above 3 µM in assay [1], above 3 µM at Recombinant human MAO-B and above 0.3 µM against Bovine LOX.
`Cc1c(-c2cccc(S(=O)(=O)N(C)C)c2)c2cc(O)ccc2n1C/C(F)=C/CN` [Compound 37, (Z)-3-(1-(4-amino-2-fluorobut-2-en-1-yl)-5-hydroxy-2-methyl-1H-indol-3-yl)-N,N-dimethylbenzenesulfonamide]: the IC50 on Human LOXL2 is below 0.3 µM; in assay [1], above 3 µM; at Recombinant human MAO-B, above 3 µM; against Bovine LOX it was above 0.3 µM.
`Cc1c(-c2cccc(N(C)S(C)(=O)=O)c2)c2cc(C(=O)O)ccc2n1C/C(F)=C/CN` [Compound 38, (Z)-1-(4-amino-2-fluorobut-2-en-1-yl)-2-methyl-3-(3-(N-methylmethylsulfonamido)phenyl)-1H-indole-5-carboxylic acid]: the IC50 at Human LOXL2 is below 0.3 µM; in assay [1], above 3 µM; on Recombinant human MAO-B, above 3 µM; against Bovine LOX, above 0.3 µM.
`Cc1c(-c2cccc(N(C)S(C)(=O)=O)c2)c2cc(C(=O)N(C)C)ccc2n1C/C(F)=C/CN` [Compound 39, (Z)-1-(4-amino-2-fluorobut-2-en-1-yl)-N,N,2-trimethyl-3-(3-(N-methylmethylsulfonamido)phenyl)-1H-indole-5-carboxamide]: the half-maximal inhibitory concentration (IC50) was below 0.3 µM against Human LOXL2, above 3 µM in assay [1], above 3 µM at Recombinant human MAO-B and above 0.3 µM at Bovine LOX.
With `Cc1c(-c2cncc(S(=O)(=O)N(C)C)c2)c2cc(C(=O)O)ccc2n1C/C(F)=C/CN` [Compound 40, (Z)-1-(4-amino-2-fluorobut-2-en-1-yl)-3-(5-(N,N-dimethylsulfamoyl)pyridin-3-yl)-2-methyl-1H-indole-5-carboxylic acid], the IC50 was below 0.3 µM against Human LOXL2, above 3 µM in assay [1], above 3 µM at Recombinant human MAO-B and above 0.3 µM against Bovine LOX.
Regarding `Cc1c(-c2cncc(S(=O)(=O)N(C)C)c2)c2cc(C(=O)N(C)C)ccc2n1C/C(F)=C/CN` [Compound 41, (Z)-1-(4-amino-2-fluorobut-2-en-1-yl)-3-(5-(N,N-dimethylsulfamoyl)pyridin-3-yl)-N,N,2-trimethyl-1H-indole-5-carboxamide], the IC50 was below 0.3 µM against Human LOXL2, above 3 µM in assay [1], above 3 µM at Recombinant human MAO-B and above 0.3 µM at Bovine LOX.
For `CCOC(=O)c1ccc2c(n1)c(-c1cccc(S(=O)(=O)N(C)C)c1)c(C)n2C/C(F)=C/CN` [Compound 42, (Z)-ethyl 1-(4-amino-2-fluorobut-2-en-1-yl)-3-(3-(N,N-dimethylsulfamoyl)phenyl-2-methyl-1H-pyrrolo[3,2-b]pyridine-5-carboxylate, Dihydrochloride], the IC50 against Human LOXL2 was below 0.3 µM; in assay [1] it was above 3 µM; on Recombinant human MAO-B, above 3 µM; on Bovine LOX, above 0.3 µM.
As to `Cc1c(-c2cccc(S(=O)(=O)N(C)C)c2)c2nc(C(=O)O)ccc2n1C/C(F)=C/CN` [Compound 43, (Z)-1-(4-amino-2-fluorobut-2-en-1-yl)-3-(3-(N,N-dimethylsulfamoyl)phenyl)-2-methyl-1H-pyrrolo[3,2-b]pyridine-5-carboxylic acid], the IC50 at Human LOXL2 is below 0.3 µM; in assay [1], above 3 µM; on Recombinant human MAO-B, above 3 µM; at Bovine LOX, above 0.3 µM.
